Assay results as given in EP3693362B1, “PARASITIC PLANT GERMINATION REGULATOR” (National University Corporation Tokai National Higher …, priority 2017, dated 2019).

What was measured:
Striga hermonthica = experiment: Parasitic plant germination induction test (Striga hermonthica seeds); assay type: in vivo; settings: in the dark for 2 days; for Germination rate 0.1 nM: compound concentration 0.1 nM; for Germination rate 1 nM: compound concentration 1 nM; for Germination rate 10 nM: compound concentration 10 nM
Description: A parasitic plant germination induction test was conducted using the compounds synthesized in Example 1 as test compounds. The seeds of a parasitic plant (Striga hermonthica, Orobanche minor, or Phelipanche aegyptiaca) were suspended in sterilized ultrapure water, and this was dispensed in an amount of 100 µL each (containing about 20 seeds) into a 96-well plate. The test compounds or control compounds (Comparison Compound 1 or synthetic Strigolactone (GR^24: Comparison Compound 2)) dissolved in DMSO were individually added thereto to a final concentration of these compounds of 10 nM to 1 fM (1 × 10^-8 to 1 × 10^-15 M), and allowed to stand in the dark for 2 days. The presence or absence of germination was observed using a microscope, and the germination rate (i.e., number of germinated seeds/total number of seeds) was measured. The higher the germination rate in the parasitic plant germination induction test, or the higher the germination rate at lower concentration, the higher the Striga germination inducing activity.
In Tables 1 to 6, the concentrations (10 nM, 1 nM, and 0.1 nM) represent compound concentrations. In Tables 1-6, the evaluation criteria for the compounds are as follows: • ++: germination rate of 20% or more • +: germination rate of 5% or more and less than 20% • -: germination rate of less than 5% Table 1

HTL3 = biological target: T1, HTL3 (Striga hermonthica, UniProt A0A0M3PN85); experiment: Affinity for strigolactone receptor, YLG probe competition (fluorescence); assay type: binding; settings: competition with YLG, test range 0.01 to 10 µM, pH 7.0, read-out: IC50 values of test compounds
T1 sequence (A0A0M3PN85 1-276): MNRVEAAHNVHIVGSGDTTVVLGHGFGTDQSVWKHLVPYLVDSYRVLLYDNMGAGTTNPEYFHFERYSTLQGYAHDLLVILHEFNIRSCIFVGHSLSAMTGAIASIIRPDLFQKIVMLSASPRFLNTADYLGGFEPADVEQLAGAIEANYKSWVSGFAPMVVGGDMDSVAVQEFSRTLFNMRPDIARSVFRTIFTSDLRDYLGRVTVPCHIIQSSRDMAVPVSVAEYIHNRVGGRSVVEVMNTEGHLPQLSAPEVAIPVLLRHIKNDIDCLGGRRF
Description: (§1) PTL 1 reports that the affinity of a test compound for the strigolactone receptor can be evaluated by reacting strigolactone with a probe for evaluation of affinity for a strigolactone receptor (e.g., YLG) in the presence of the test compound, and measuring the fluorescence emitted from the decomposition product of YLG. Therefore, the compounds synthesized in Example 1 were used as the test compounds, and the affinity for the strigolactone receptor was evaluated by a similar method to the above. The details are as follows.
(§2) An Arabidopsis thaliana strigolactone receptor (AtD14) was produced in accordance with a usual method. More specifically, cDNA of the receptor was obtained by RT-PCR, and expression and purification were carried out in E. coli. Additionally, Striga strigolactone receptors were produced by the method disclosed in PTL 1 (ShHTL1: amino acid SEQ ID NO: 1, ShHTL2: amino acid SEQ ID NO: 2, ShHTL3: amino acid SEQ ID NO: 3, ShHTL4: amino acid SEQ ID NO: 4, ShHTL5: amino acid SEQ ID NO: 5, ShHTLS: amino acid SEQ ID NO: 6, ShHTL7: amino acid SEQ ID NO: 7, ShHTLS: amino acid SEQ ID NO: 8, ShHTL9: amino acid SEQ ID NO: 9, ShHTL10: amino acid SEQ ID NO: 10, and ShHTL11: amino acid SEQ ID NO: 11.)
(§3) One hundred microliters of a reaction solution containing each of the obtained strigolactone receptors ([…]), YLG (final concentration: […]), and each of the test compounds (final concentration: 0.01 to 10 µM) or the control compound (5-deoxystrigol, final concentration: 0.01 to 10 µM) as a competitive compound (100 mM HEPES, 150 mM NaCl, pH: 7.0, 0.1% DMSO) was prepared and reacted in a 96 black-well plate (Greiner). Sixty after the initiation of the reaction, fluorescence was detected at an excitation wavelength of 480 nm and a detection wavelength of 520 nm using a fluorescence detector (SpectraMax i3, manufactured by Molecular Devices), and the fluorescence intensity was measured. Based on the measurement results of fluorescence intensity, a Lineweaver-Burk plot was created to calculate the Km values, and the IC50 values of each of the test compounds and the control compound, which are competitive compounds.
(§4) In Table 7, HTL1 to HTL11 refer to strigolactone receptors (SEQ ID NOs: 1 to 11), and AtD14 refer to the Arabidopsis thaliana strigolactone receptor.

HTL4 = biological target: T2, HTL4 (Striga hermonthica, UniProt A0A0M4AMQ0); experiment: as above; assay type: binding; settings: competition with YLG, test range 0.01 to 10 µM, pH 7.0, read-out: IC50 values of test compounds
T2 sequence (A0A0M4AMQ0 1-271): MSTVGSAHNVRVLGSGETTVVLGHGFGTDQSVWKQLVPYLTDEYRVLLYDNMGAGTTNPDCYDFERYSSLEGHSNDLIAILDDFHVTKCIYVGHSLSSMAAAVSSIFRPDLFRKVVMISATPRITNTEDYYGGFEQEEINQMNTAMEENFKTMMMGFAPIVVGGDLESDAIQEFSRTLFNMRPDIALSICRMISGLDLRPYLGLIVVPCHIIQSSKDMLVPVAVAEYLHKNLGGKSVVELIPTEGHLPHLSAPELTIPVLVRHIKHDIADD
Description: as §1, §2, §3, §4

HTL8 = biological target: T3, HTL8 (Striga hermonthica, UniProt A0A0M4APJ4); experiment: as above; assay type: binding; settings: competition with YLG, test range 0.01 to 10 µM, pH 7.0, read-out: IC50 values of test compounds
T3 sequence (A0A0M4APJ4 1-272): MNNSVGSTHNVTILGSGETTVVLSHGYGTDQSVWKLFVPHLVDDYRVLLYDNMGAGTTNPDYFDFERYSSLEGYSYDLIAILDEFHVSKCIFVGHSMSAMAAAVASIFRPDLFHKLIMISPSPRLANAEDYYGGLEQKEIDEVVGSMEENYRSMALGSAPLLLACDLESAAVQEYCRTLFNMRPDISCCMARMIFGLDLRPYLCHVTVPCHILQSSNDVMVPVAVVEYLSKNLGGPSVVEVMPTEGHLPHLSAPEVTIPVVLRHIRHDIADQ
Description: as §1, §2, §3, §4

HTL6 = biological target: T4, HTL6 (Striga hermonthica, UniProt A0A0M4AUV4); experiment: as above; assay type: binding; settings: competition with YLG, test range 0.01 to 10 µM, pH 7.0, read-out: IC50 values of test compounds
T4 sequence (A0A0M4AUV4 1-271): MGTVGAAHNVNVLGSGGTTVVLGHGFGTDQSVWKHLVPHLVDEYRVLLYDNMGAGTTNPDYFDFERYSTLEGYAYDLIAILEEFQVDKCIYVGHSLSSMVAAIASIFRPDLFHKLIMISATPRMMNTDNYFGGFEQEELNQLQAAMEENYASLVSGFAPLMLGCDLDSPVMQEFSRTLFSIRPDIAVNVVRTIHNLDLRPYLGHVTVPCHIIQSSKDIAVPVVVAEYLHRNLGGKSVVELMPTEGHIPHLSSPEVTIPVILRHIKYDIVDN
Description: as §1, §2, §3, §4

Row | SMILES | Germination rate 0.1 nM (Striga hermonthica) | Germination rate 1 nM (Striga hermonthica) | Germination rate 10 nM (Striga hermonthica) | IC50 (HTL3) [µM] | IC50 (HTL4) [µM] | IC50 (HTL8) [µM] | IC50 (HTL6) [µM]
1 | CCCCOc1ccc(S(=O)(=O)N2CCN(C(=O)OC3C=C(C)C(=O)O3)CC2)cc1 (stereo not shown) [Compound 1] | ++ (germination rate of 20% or more) | ++ (germination rate of 20% or more) | ++ (germination rate of 20% or more) | > 10 | > 10 | 1.1 | > 10
2 | CC1=CC(OC=C2C(=O)OC3C4=C(CCCC4(C)C)CC23)OC1=O (stereo not shown) [5-Ddeoxystriqol, 5-deoxystrigol, reference compound] | – | – | – | 9.3 | 0.3 | 0.36 | 0.19
3 | CC1=CC(OC(=O)NCc2ccccc2)OC1=O (stereo not shown) [Comparison Compound 1, reference compound] | - (germination rate of less than 5%) | - (germination rate of less than 5%) | - (germination rate of less than 5%) | > 10 | > 10 | > 10 | > 10
4 | CCCCOc1ccc(S(=O)(=O)N2CCN(C(=O)OC3C=CC(=O)O3)CC2)cc1 (stereo not shown) [Compound 13] | + (germination rate of 5% or more and less than 20%) | ++ (germination rate of 20% or more) | ++ (germination rate of 20% or more) | 2 | > 10 | > 10 | > 10
